Measurements reported in patent US10556888B2, “Pyrazole compounds or salts thereof, preparation methods therefor, herbicidal compositions and use thereof” (QINGDAO KINGAGROOT CHEMICAL COMPOUNDS CO., LTD, priority 2015, dated 2020).

Tests used:
[1] = test system: Monocotyledonous and dicotyledonous weed; experiment: Post-emergence test experiment, weed control effect (Table 2); assay type: in vivo; set-up: key to weed control effect, Setaria viridis (level) / weed control effect, Rorippa indica (level) / weed control effect, Abutilon theophrasti (level) / weed control effect, Echinochloa crus-galli (level) / weed control effect, Digitaria sanguinalis (level): Level 10: completely dead; Level 9: above 90% growth inhibition rate; Level 8: above 80% growth inhibition rate; Level 7: above 70% growth inhibition rate; Level 6: above 60% growth inhibition rate; Level 5: above 50% growth inhibition rate; Level 4: above 30% growth inhibition rate; Level 3: above 20% growth inhibition rate; Level 2: above 10% growth inhibition rate; Level 1: above 1-10% growth inhibition rate; Level 0: no effect; conditions: 3 weeks after spraying, greenhouse
Protocol: (§1) Post-emergence test experiment: Monocotyledonous and dicotyledonous weed seeds and main crop seeds (i.e. wheat, corn, rice, soybean, cotton, oilseed, millet and sorghum.) were put into a plastic pot loaded with soil. Then covered with 0.5-2 cm soil, the seeds were allowed to grow in good greenhouse environment. The test plants were treated at 2-3 leaf stage 2-3 weeks after sowing. The test compounds of the invention were dissolved with acetone respectively, then added with 80 tween and diluted by certain amount of water to certain concentration. The solution was sprayed to the plants with a sprayer. Then the plants were cultured for 3 weeks in the greenhouse.

[2] = test system: main crop (wheat, corn, rice, soybean, cotton, oilseed, millet and sorghum); experiment: Post-emergence test experiment, main crops (Table 2); assay type: in vivo; set-up: key: Level 10: completely dead; Level 9: above 90% growth inhibition rate; Level 8: above 80% growth inhibition rate; Level 7: above 70% growth inhibition rate; Level 6: above 60% growth inhibition rate; Level 5: above 50% growth inhibition rate; Level 4: above 30% growth inhibition rate; Level 3: above 20% growth inhibition rate; Level 2: above 10% growth inhibition rate; Level 1: above 1-10% growth inhibition rate; Level 0: no effect; conditions: 3 weeks after spraying, greenhouse
Protocol: as §1

Structure (SMILES)	weed control effect, Abutilon theophrasti (level) ([1]; 30 g/ha)	weed control effect, Bidens pilosa (level) ([1]; 30 g/ha)	weed control effect, Digitaria sanguinalis (level) ([1]; 30 g/ha)	weed control effect, Echinochloa crus-galli (level) ([1]; 30 g/ha)	weed control effect, Rorippa indica (level) ([1]; 30 g/ha)	weed control effect, Setaria viridis (level) ([1]; 30 g/ha)	effect on crop, corn (level) ([2]; 30 g/ha)	effect on crop, rice (level) ([2]; 30 g/ha)	effect on crop, wheat (level) ([2]; 30 g/ha)	weed control effect, Abutilon theophrasti (level) ([1]; 60 g/ha)	weed control effect, Bidens pilosa (level) ([1]; 60 g/ha)	weed control effect, Digitaria sanguinalis (level) ([1]; 60 g/ha)	weed control effect, Echinochloa crus-galli (level) ([1]; 60 g/ha)	weed control effect, Rorippa indica (level) ([1]; 60 g/ha)	weed control effect, Setaria viridis (level) ([1]; 60 g/ha)	effect on crop, corn (level) ([2]; 60 g/ha)	effect on crop, rice (level) ([2]; 60 g/ha)	effect on crop, wheat (level) ([2]; 60 g/ha)
C#CCOCc1c(S(C)(=O)=O)ccc(C(=O)c2c(C)nn(C)c2OC(=O)c2cn(C)nc2C)c1Cl [Compound 33]	7 (Level 7: above 70% growth inhibition rate)	7 (Level 7: above 70% growth inhibition rate)	9 (Level 9: above 90% growth inhibition rate)	9 (Level 9: above 90% growth inhibition rate)	5 (Level 5: above 50% growth inhibition rate)	9 (Level 9: above 90% growth inhibition rate)	1 (Level 1: above 1-10% growth inhibition rate)	5 (Level 5: above 50% growth inhibition rate)	0									
CCCCOCc1c(S(C)(=O)=O)ccc(C(=O)c2c(C)nn(C)c2OC(=O)c2cn(C)nc2C)c1Cl [Compound 34]										10	8 (Level 8: above 80% growth inhibition rate)	10	10	10	8 (Level 8: above 80% growth inhibition rate)	0	1 (Level 1: above 1-10% growth inhibition rate)	0
Cc1nn(C)cc1C(=O)Oc1c(C(=O)c2ccc(S(C)(=O)=O)c(COCC(F)(F)C(F)F)c2Cl)c(C)nn1C [Compound 35]	7 (Level 7: above 70% growth inhibition rate)	7 (Level 7: above 70% growth inhibition rate)	7 (Level 7: above 70% growth inhibition rate)	10	5 (Level 5: above 50% growth inhibition rate)	6 (Level 6: above 60% growth inhibition rate)	1 (Level 1: above 1-10% growth inhibition rate)	5 (Level 5: above 50% growth inhibition rate)	0									
COCCCOCc1c(S(C)(=O)=O)ccc(C(=O)c2c(C)nn(C)c2OC(=O)c2cn(C)nc2C)c1Cl [Compound 37]										10	8 (Level 8: above 80% growth inhibition rate)	10	9 (Level 9: above 90% growth inhibition rate)	10	5 (Level 5: above 50% growth inhibition rate)	0	1 (Level 1: above 1-10% growth inhibition rate)	0
CC=CCOCc1c(S(C)(=O)=O)ccc(C(=O)c2c(C)nn(C)c2OC(=O)c2cn(C)nc2C)c1Cl [Compound 38]										10	8 (Level 8: above 80% growth inhibition rate)	8 (Level 8: above 80% growth inhibition rate)	8 (Level 8: above 80% growth inhibition rate)	10	10	0	1 (Level 1: above 1-10% growth inhibition rate)	0
CCOCCOCc1c(S(C)(=O)=O)ccc(C(=O)c2c(C)nn(C)c2OC(=O)c2cn(C)nc2C)c1Cl [Compound 39]										10	8 (Level 8: above 80% growth inhibition rate)	9 (Level 9: above 90% growth inhibition rate)	10	10	10	0	1 (Level 1: above 1-10% growth inhibition rate)	0
C#CCOCc1c(S(C)(=O)=O)ccc(C(=O)c2cnn(C)c2OC(=O)c2cn(C)nc2C)c1Cl [Compound 41]	7 (Level 7: above 70% growth inhibition rate)	7 (Level 7: above 70% growth inhibition rate)	8 (Level 8: above 80% growth inhibition rate)	10	10	10	0	5 (Level 5: above 50% growth inhibition rate)	0									
CCOCc1c(S(C)(=O)=O)ccc(C(=O)c2cnn(C)c2OC(=O)c2cn(C)nc2C)c1Cl [Compound 42]	7 (Level 7: above 70% growth inhibition rate)	7 (Level 7: above 70% growth inhibition rate)	7 (Level 7: above 70% growth inhibition rate)	10	10	9 (Level 9: above 90% growth inhibition rate)	0	5 (Level 5: above 50% growth inhibition rate)	0									
CC=CCOCc1c(S(C)(=O)=O)ccc(C(=O)c2cnn(C)c2OC(=O)c2cn(C)nc2C)c1Cl [Compound 43]	7 (Level 7: above 70% growth inhibition rate)	7 (Level 7: above 70% growth inhibition rate)	7 (Level 7: above 70% growth inhibition rate)	10	10	9 (Level 9: above 90% growth inhibition rate)	0	3 (Level 3: above 20% growth inhibition rate)	0									
Cc1nn(C)cc1C(=O)Oc1c(C(=O)c2ccc(S(C)(=O)=O)c(COCC(F)(F)F)c2Cl)cnn1C [Compound 44]	7 (Level 7: above 70% growth inhibition rate)	7 (Level 7: above 70% growth inhibition rate)	10	10	10	9 (Level 9: above 90% growth inhibition rate)	0	3 (Level 3: above 20% growth inhibition rate)	0									
CCOCCOCc1c(S(C)(=O)=O)ccc(C(=O)c2cnn(C)c2OC(=O)c2cn(C)nc2C)c1Cl [Compound 45]	7 (Level 7: above 70% growth inhibition rate)	7 (Level 7: above 70% growth inhibition rate)	7 (Level 7: above 70% growth inhibition rate)	9 (Level 9: above 90% growth inhibition rate)	10	7 (Level 7: above 70% growth inhibition rate)	0	3 (Level 3: above 20% growth inhibition rate)	0									
